In ChEMBL document CHEMBL1743201, “Casarett and Doull's Toxicology The Basic Science of Poisons, 7th edition” (2008) one finds Activity data, which are given here for two compounds.

Holding throughout (assay type): ADME
One data set addresses Cytochrome P450 2C9 (Homo sapiens, UniProt P11712). The data set can be described thus: Clinically relevant inducers of human liver microsomal P450 enzymes, isoform CYP2C9. The following applies: microsomes. (Liver microsomes are a subcellular fraction often used to study metabolism.)
Data set [1] deals with T1, Nuclear receptor subfamily 1 group I member 3 (Homo sapiens, UniProt Q14994).
T1 sequence (Q14994 whole entry): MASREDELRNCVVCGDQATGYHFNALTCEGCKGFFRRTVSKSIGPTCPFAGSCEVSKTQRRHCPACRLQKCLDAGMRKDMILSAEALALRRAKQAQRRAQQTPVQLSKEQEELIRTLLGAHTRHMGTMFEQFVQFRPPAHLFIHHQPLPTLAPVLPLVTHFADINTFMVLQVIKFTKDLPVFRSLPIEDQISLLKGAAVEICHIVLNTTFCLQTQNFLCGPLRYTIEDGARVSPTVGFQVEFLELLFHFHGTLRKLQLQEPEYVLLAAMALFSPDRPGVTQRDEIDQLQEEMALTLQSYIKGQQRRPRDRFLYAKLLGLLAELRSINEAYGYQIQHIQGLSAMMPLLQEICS
Nature of the data set: (§1) Constitutive androstane receptor indirect activator.

Data set [2] has as its target T2, Nuclear receptor subfamily 1 group I member 3 (Mus musculus, UniProt O35627).
T2 sequence (O35627 whole entry): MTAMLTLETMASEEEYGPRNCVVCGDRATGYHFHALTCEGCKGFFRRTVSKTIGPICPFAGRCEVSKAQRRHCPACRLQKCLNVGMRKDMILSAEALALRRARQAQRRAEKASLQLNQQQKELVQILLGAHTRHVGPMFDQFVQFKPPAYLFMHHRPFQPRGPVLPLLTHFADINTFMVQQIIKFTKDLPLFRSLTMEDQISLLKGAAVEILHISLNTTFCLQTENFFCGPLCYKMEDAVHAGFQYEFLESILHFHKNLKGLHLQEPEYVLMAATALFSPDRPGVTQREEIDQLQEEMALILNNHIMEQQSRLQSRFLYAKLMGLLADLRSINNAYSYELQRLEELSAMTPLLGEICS
Described as §1.

A further data set has as its target T3, Cytochrome P450 2B6 (Homo sapiens, UniProt P20813).
T3 sequence (P20813 whole entry): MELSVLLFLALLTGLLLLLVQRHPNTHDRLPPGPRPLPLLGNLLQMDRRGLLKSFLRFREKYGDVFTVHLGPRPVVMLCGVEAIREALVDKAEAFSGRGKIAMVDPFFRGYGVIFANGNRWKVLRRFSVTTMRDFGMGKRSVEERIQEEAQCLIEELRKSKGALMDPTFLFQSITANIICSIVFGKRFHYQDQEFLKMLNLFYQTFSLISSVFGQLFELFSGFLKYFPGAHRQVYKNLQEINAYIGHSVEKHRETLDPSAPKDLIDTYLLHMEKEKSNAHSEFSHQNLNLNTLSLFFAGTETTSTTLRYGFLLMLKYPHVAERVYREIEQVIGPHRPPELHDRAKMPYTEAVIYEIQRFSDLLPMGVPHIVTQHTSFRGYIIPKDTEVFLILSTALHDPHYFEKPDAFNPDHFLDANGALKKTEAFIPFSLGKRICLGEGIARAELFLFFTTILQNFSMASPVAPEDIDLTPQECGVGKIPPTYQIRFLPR
Nature of the data set: Clinically relevant inducers of human liver microsomal P450 enzymes, isoform CYP2B6. The following applies: microsomes.

A further data set concerns the target T4, Cytochrome P450 2C8 (Homo sapiens, UniProt P10632).
T4 sequence (P10632 whole entry): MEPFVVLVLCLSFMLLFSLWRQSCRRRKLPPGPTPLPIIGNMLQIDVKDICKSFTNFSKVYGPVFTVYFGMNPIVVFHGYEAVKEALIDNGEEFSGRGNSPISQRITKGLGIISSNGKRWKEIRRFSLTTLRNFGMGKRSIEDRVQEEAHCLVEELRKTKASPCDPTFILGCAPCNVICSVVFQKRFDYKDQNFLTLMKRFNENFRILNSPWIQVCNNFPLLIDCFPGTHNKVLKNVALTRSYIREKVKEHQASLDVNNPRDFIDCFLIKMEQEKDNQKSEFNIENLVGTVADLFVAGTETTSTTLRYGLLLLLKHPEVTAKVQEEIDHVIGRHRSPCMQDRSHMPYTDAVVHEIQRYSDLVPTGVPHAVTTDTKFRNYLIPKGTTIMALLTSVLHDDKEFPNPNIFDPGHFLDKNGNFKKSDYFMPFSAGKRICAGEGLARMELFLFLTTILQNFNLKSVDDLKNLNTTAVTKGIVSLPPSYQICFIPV
Nature of the data set: Clinically relevant inducers of human liver microsomal P450 enzymes, isoform CYP2C8. Particulars: microsomes.

The next data set addresses Cytochrome P450 2C19 (Homo sapiens, UniProt P33261). Nature of the data set: Clinically relevant inducers of human liver microsomal P450 enzymes, isoform CYP2C19. Particulars: microsomes.
In data set [3] the target is T5, Glutathione S-transferase Mu 2 (Homo sapiens, UniProt P28161).
T5 sequence (P28161 whole entry): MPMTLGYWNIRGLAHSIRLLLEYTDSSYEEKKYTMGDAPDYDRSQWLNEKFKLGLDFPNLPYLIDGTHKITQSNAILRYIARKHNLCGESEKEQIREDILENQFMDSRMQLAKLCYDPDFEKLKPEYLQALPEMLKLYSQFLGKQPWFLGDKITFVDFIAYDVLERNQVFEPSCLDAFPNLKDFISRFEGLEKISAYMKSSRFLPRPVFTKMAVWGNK
Nature of the data set: Substrates for human cytosolic glutathione transferase GSTM2.

Data set [4] has as its target Glutathione S-transferase Mu 3 (Homo sapiens, UniProt P21266). Nature of the data set: Substrates for human cytosolic glutathione transferase GSTM3.
The target of data set [5] is Hematopoietic prostaglandin D synthase (Homo sapiens, UniProt O60760). Nature of the data set: Substrates for human cytosolic glutathione transferase PGDS.
Hematopoietic prostaglandin D synthase, sequence (O60760 whole entry): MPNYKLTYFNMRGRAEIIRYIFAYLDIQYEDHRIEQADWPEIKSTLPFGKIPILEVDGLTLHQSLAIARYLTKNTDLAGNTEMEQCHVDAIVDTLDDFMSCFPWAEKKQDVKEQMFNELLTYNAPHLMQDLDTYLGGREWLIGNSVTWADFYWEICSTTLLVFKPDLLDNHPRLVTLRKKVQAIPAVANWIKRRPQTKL
The next data set has as its target Prostaglandin E synthase (Homo sapiens, UniProt O14684). Nature of the data set: Substrates for human microsomal glutathione transferase PTGEs.

Prostaglandin E synthase, sequence (O14684 whole entry): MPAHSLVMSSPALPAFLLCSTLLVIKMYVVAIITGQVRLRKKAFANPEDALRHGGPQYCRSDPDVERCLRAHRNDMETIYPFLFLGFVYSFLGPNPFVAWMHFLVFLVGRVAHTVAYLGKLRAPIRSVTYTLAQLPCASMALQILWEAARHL
Cytochrome P450 2C9, sequence (P11712 whole entry, canonical isoform): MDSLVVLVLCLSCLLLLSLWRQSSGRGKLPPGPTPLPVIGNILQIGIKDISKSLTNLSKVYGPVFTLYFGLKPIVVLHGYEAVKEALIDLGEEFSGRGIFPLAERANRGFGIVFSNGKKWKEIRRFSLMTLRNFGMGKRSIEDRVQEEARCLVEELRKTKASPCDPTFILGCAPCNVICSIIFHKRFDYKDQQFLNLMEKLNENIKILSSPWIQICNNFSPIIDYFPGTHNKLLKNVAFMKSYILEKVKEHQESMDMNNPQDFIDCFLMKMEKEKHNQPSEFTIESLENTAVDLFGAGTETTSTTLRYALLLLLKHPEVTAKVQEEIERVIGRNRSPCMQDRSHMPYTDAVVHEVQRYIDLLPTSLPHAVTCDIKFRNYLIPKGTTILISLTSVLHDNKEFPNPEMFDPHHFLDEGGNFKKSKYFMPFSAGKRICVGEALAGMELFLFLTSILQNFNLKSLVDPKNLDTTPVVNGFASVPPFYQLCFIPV
Cytochrome P450 2C19, sequence (P33261 whole entry, canonical isoform): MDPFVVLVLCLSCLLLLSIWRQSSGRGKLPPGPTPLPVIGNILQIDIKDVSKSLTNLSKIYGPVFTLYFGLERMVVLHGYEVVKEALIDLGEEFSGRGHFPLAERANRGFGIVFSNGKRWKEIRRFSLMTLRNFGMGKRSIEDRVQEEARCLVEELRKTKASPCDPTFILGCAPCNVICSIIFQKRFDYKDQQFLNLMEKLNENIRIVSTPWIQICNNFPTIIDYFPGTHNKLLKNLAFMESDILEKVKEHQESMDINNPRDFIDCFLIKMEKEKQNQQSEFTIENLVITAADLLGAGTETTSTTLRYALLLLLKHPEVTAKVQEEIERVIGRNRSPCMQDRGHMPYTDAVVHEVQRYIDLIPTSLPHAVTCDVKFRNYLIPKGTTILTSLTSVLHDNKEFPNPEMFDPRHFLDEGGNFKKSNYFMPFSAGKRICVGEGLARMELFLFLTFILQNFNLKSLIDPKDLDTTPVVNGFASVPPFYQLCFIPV
Glutathione S-transferase Mu 3, sequence (P21266 whole entry): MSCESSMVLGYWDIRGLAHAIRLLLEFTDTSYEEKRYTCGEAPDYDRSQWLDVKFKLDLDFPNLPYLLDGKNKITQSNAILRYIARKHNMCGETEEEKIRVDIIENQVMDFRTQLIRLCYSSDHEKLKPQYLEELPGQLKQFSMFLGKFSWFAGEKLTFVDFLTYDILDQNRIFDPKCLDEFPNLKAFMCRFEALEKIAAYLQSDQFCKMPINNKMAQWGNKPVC

With `CCC1(c2ccccc2)C(=O)NC(=O)NC1=O` [PHENOBARBITAL], the Activity result on Cytochrome P450 2C9 is “Inducer”; in data set [1] it was “indirect activator”; in data set [2], “indirect activator”; at Cytochrome P450 2B6, “Inducer”; at Cytochrome P450 2C8, “Inducer”; on Cytochrome P450 2C19 it was “Inducer”.

As to `CCCCC[C@H](O)/C=C/[C@H]1C2CC(OO2)[C@@H]1C/C=C\CCCC(=O)O` (stereo not given in full), the Activity entry (in data set [3]; in data set [4]; in [5]; on Prostaglandin E synthase) was “Substrate” throughout.
